Measured values as given in US7662565B2, “Approaches to identify less harmful tobacco and tobacco products” (Vector Tobacco, Inc., priority 2004, dated 2010).
Read-outs that look alike come from different tables or passages of the source.

How the values were obtained:
tobacco leaf disks = assay: Norflurazone resistance of tobacco leaf disks transformed with PDSM genes; settings: Agrobacterium transformation of tobacco leaf disks; various norflurazone concentrations
Protocol: Other aspects of the invention concern the discovery of several mutants of the phytoene desaturase gene that confer resistance to the herbicide norflurazone (e.g., SEQ. ID. Nos.10, 11, and 12). These herbicide resistance genes were used as selectable markers in the transformations above. Typically, the selection was accomplished by introducing the transformed plant tissue to the norflurazone (e.g., 0.005 uM-0.1 uM conc.). That is, the concentration of norflurazone that can be used to select positive transformants containing a norflurazone resistance gene, as described herein can be at least, less than, greater than, or equal to 0.005, 0.006, 0.007, 0.008, 0.009, 0.01, 0.02, 0.03, 0.04, 0.05, 0.06, 0.07, 0.08, 0.09, 0.1, 0.2, 0.3, 0.4, 0.5, 0.6, 0.7, 0.8, 0.9, or 1.0 uM. Preferably, less than or equal to 0.05 uM concentration of norflurazone is used when selecting transformants with Flue-cured tobacco and less than or equal to 0.0125 uM concentration norflurazone is used when selecting transformants with Burley tobacco. As the plantlet develops, selection was accomplished by differentiating the green shoots (positive transformants) from the yellow or white shoots (negative transformants). Once selection was made, the herbicide was removed and the plantlet was allowed to develop in the greenhouse.
The norflurazone resistant phytoene desaturase mutants (PDSM-1, PDSM-2, and PDSM-3) were generated by site-directed mutagenesis of particular regions of the gene believed to be involved in binding of the herbicide. Constructs carrying the various PDSM genes were then transferred to tobacco leaf disks by conventional Agrobacterium transformation and the resistance to norflurazone was analyzed at various concentrations. After several iterations, the mutants described as SEQ. ID. […] Accordingly, aspects of the invention concern the PDSM genes described herein, their use in plants as selectable markers to identify plant cells that contain a transformed gene, whether in tissue culture or in the field, and methods of identifying new PDSM genes that confer norflurazone resistance.

A549 cells [1] = assay: γH2AX DNA damage assay, A549 cells exposed to whole smoke or vapor phase of smoke (Example 2); type: cell-based, human; settings: for suppression of DNA damage (γH2AX): 25 mM NAC present during exposure; for effect of NAC on DNA damage: 25 mM NAC during exposure (FIG. 10); for IC50: Homo sapiens, from graph FIG. 11, read-out: concentration of NAC that reduced DNA damage by 50%
NHBE cells = assay: γH2AX DNA damage assay, NHBE cells exposed to whole smoke or vapor phase of smoke (Example 2); type: cell-based, human
Text: In order to compare DNA damage as a function of the cell's position in the cell cycle, γH2AX values were normalized to DNA content since histone content doubles as cells proceed from G1 to G2 phase. Thus, in order to determine any change in histone H2AX phosphorylation independent of changes in histone/DNA content or DNA ploidy, the values for S and G2M phase populations, gated according to DNA content, were multiplied by 0.75 and 0.5, respectively. In instances where “normalized” values of γH2AX are presented, these values were obtained by subtracting the mean values of each cell cycle population (or the total population) from the mean of the mock-treated population whose γH2AX values represent “scheduled” γH2AX expression. In all instances, the values presented represent the mean γH2AX fluorescence of the population; typically 3-5×10^3 cells were analyzed for each condition.
The response of NHBE cells to whole smoke from IM 16 cigarettes was more or less identical to that observed for A549 cells (FIG. 7C). The one difference between the two cell lines was that S phase cells in NHBE cultures always expressed higher “scheduled” amounts of γH2AX.
In the next series of experiments, it was determined that DNA damage caused by whole smoke can be mitigated by the presence of NAC. Using a standardized set of conditions (20 min of exposure followed by a 1 h recovery), DNA damage caused by whole smoke from IM 16 cigarettes was assayed in both A549 and NHBE cells. NAC at a concentration of 25 mM was either absent or present during exposure and absent or present during the 1 h recovery time. In this instance, the background or “scheduled” γH2AX expression observed in Mock-treated cells was subtracted from each measurement. The remaining fluorescence should be indicative of the level of DNA DSBs under each set of conditions.
The vapor phase from IM 16 CS cause only about 30% (29.7%) of the damage caused by whole smoke whereas the vapor phase of smoke from Quest 1® caused 97% less damage than whole smoke from IM 16 cigarettes.

A549 cells [2] = assay: Clonogenic survival assay (Example 3); type: cell-based
Protocol: A clonogenic survival assay was used to study the ability of tobaccos and tobacco products to impact the proliferation of cells. The experiment involves four major steps: (1) inoculate cells into culture dishes and incubate for 24-48 hours; (2) upon reaching the logarithmic phase of growth, the treatment is applied; the treatment in this case is freshly prepared and diluted CS for increasing periods of time; (3) the cells are then allowed to recover for a set number of hours (up to 24), then the cells are trypsinized, replated at specific dilutions, and allowed to continue growing for 5-7 days; the number of cells used depends largely on the plating efficiency of the cell line and must be determined empirically prior to the experiment; and (4) at the conclusion of the experiment, the cells are fixed, stained, and counted. The primary measure is to count surviving colonies of 25-50 cells which is presented as the percentage of cells which survived the treatment. A graphical representation of survival versus exposure time to CS is then generated. The surviving fraction is determined by dividing the number of colonies in the dish by the number of the colonies in the control (non-treated) dish.
A549 cells were exposed to smoke as previously described (see above). Following smoke exposure the medium is aspirated and the cells rinsed refed with 37° C. BEGM and placed in a 37° C., 5% CO2 humidified incubator for two to three hours. The cells are harvested by trypsinization with trypsin-EDTA (0.25% trypsin-0.38 mg/ml EDTA, Invitrogen). Cells are centrifuged at 260×g for 8 min. Cell pellets are resuspended in 1 ml of Ham's F-12K medium, 10% FBS (complete medium) per pellet and counted. Cells are serially diluted so that the mock treated have ˜65 cells per well and smoke treated have ˜300 cells per well when seeded onto 96-well flat bottom tissue culture plates; one plate per condition. The plates are incubated for five days in a 37° C., 5% CO2 humidified incubator. The colonies of cells are fixed with 5% formaldehyde/PBS and colored with 0.8% crystal violet solution for visualization. The colonies are counted with the aid of a macroscopic dissecting microscope. The cloning efficiency results are expressed in relation to the mock exposed cells. Unless otherwise indicated, each bar in the graphs represents three replicate data points per experiment.
In yet another series of experiments, the effect of NAC on cell death caused by the VAPOR phase of smoke from different cigarettes was evaluated. A549 cells were exposed to the vapor phase of smoke for 20 min by inserting a Cambridge filter pad immediately after the cigarette in the smoking apparatus so as to filter out the particulate matter (“tar”) and leave only the vapor phase. […]

For “PDSM-2: Arabidopsis phytoene desaturase mutant gene, G to C at position 863 (Arginine to Proline at residue 288)”, the resistance to norflurazone (tobacco leaf disks) was “confer resistance to norflurazone”.

With “PDSM-1: Arabidopsis phytoene desaturase mutant gene, T to G at position 1478 (Valine to Glycine at residue 493)” the resistance to norflurazone (tobacco leaf disks) was “confer resistance to norflurazone”.

For `CC(=O)N[C@@H](CS)C(=O)O` [NAC, N-acetyl-L-cysteine], the “effect of NAC on vapor phase damage” value (A549 cells [1]; A549, each cell cycle phase, vapor phase from Quest 1 and Quest 3) was “reduced damage to background levels”, the “suppression of DNA damage (γH2AX)” value (A549 cells [1]; A549, entire population, IM 16 whole smoke 20 min, 1 h recovery) was “greater than 80%” and the “suppression of γH2AX” value (A549 cells [1]; A549, entire population, IM 16 whole smoke, 25 mM NAC during exposure and during 1 h recovery) was 90%. The “mitigation of DNA damage” value (A549 cells [1]; A549, IM 16 whole smoke, 25 mM NAC applied to the media following exposure only) was “did nothing to mitigate the DNA damage”, the “effect of NAC on DNA damage” value (A549 cells [1]; A549, smoke from IM 16) was “dramatically reduced the effects of smoke” and the “effect of NAC on DNA damage” value (A549 cells [1]; A549, smoke from Omni) was “reduced the damage to near background levels”. For the same compound, the “effect of NAC on DNA damage” value (A549 cells [1]; A549, smoke from Quest 3) was “reduced to background levels”, the “reduction of γH2AX by NAC” value (A549 cells [1]; A549, vapor phase of smoke from IM 16, NAC during exposure) was 93.2% and the “reduction of γH2AX by NAC” value (A549 cells [1]; A549, vapor phase of smoke from Quest 1, NAC during exposure) was 98.9%. The “reduction of γH2AX by NAC” value (A549 cells [1]; A549, vapor phase of smoke from Quest 3, NAC during exposure) was 100%, the “reduction of γH2AX by NAC” value (A549 cells [1]; A549, whole smoke from IM 16, 25 mM NAC during exposure) was 89.1% and the “suppression of DNA damage (γH2AX)” value (A549 cells [1]; A549 G1 cells, IM 16 whole smoke) was 91%. The “reduction of damage by NAC” value (A549 cells [1]; A549 G1 phase, vapor phase of smoke from IM 16) was 98.5%, the “suppression of DNA damage (γH2AX)” value (A549 cells [1]; A549 G2M cells, IM 16 whole smoke) was 88% and the “reduction of damage by NAC” value (A549 cells [1]; A549 G2M phase, vapor phase of smoke from IM 16) was 92.2%. For the same compound, the “suppression of DNA damage (γH2AX)” value (A549 cells [1]; A549 S phase cells, IM 16 whole smoke) was 82%, the “reduction of damage by NAC” value (A549 cells [1]; A549 S phase, vapor phase of smoke from IM 16) was 89.0% and the “concentration dependence of NAC protection” value (A549 cells [1]; G1 and G2M A549 cells, IM 16 whole smoke 20 min, 1 h recovery) was “began to decrease when as little as 1 mM NAC was present”. It also gave an IC50 (A549 cells [1]; A549, G1 phase A549 cells, IM 16 whole smoke) of about 4.5 mM, an IC50 (A549 cells [1]; A549, G2M phase A549 cells, IM 16 whole smoke) of about 7.5 mM and an IC50 (A549 cells [1]; A549, S phase A549 cells, IM 16 whole smoke) of about 2.6 mM. For the same compound, the “concentration dependence of NAC protection” value (A549 cells [1]; S phase A549 cells, IM 16 whole smoke 20 min, 1 h recovery) was “unaffected by the presence of NAC up to a concentration of 5 mM”, the “decrease of DNA damage by NAC” value (NHBE cells; NHBE G1 cells, IM 16 whole smoke, 25 mM NAC present during exposure) was about 69% and the “decrease of DNA damage by NAC” value (NHBE cells; NHBE G2M cells, IM 16 whole smoke, 25 mM NAC present during exposure) was “about 65%”. The “protection by NAC” value (NHBE cells; NHBE S phase cells, IM 16 whole smoke, 25 mM NAC present during exposure) was “afforded no protection”, the “protection by NAC” value (NHBE cells; NHBE, IM 16 whole smoke, 25 mM NAC during exposure and recovery) was “small degree of additional protection” and the “effect of NAC on level of DNA damage” value (NHBE cells; NHBE, IM 16 whole smoke, 25 mM NAC only during recovery) was “little effect on the level of DNA damage”. The “effect of NAC on vapor phase DNA damage” value (NHBE cells; NHBE, vapor phase of IM 16, Quest 1 or Quest 3) was “abolished virtually all DNA damage”, the “effect of NAC on vapor phase damage” value (NHBE cells; NHBE, vapor phase of smoke from IM 16 (FIG. 13)) was “to background levels or below” and the “effect of NAC on vapor phase damage” value (NHBE cells; NHBE, vapor phase of smoke from Quest cigarettes) was “inhibited”. For the same compound, the “reduction of γH2AX by NAC” value (NHBE cells; NHBE, whole smoke from IM 16, NAC during exposure) was 77.9%, the “protection of cell viability by NAC” value (A549 cells [2]; 20 min IM16 smoke, various concentrations of NAC (FIG. 16)) was “protected the viability of the cells in a dose-dependent manner” and the “protection of cell viability by NAC” value (A549 cells [2]; 20 min Omni or IM16 smoke, 25 mM NAC) was “partially protected”. The “protection of cell viability by NAC” value (A549 cells [2]; 20 min Quest 3 smoke, 25 mM NAC) was “completely protected” and the “protection of cell viability by NAC” value (A549 cells [2]; all vapor phase exposures, 25 mM NAC) was “protected the cells against viability loss”.

“PDSM-3: Arabidopsis phytoene desaturase mutant gene, T to C at position 1226 (Leucine to Proline at residue 409)” was tested, and the resistance to norflurazone (tobacco leaf disks) was “confer resistance to norflurazone”.
